# Test results from ChEMBL document CHEMBL2429768, “Eco-friendly synthesis and antimicrobial activities of substituted-5-(1H-indol-3-yl)methylene)-2,2-dimethyl-1,3-dioxane-4,6-dione derivatives” (2013).
# Key:
# Format in all cases: functional
# Escherichia coli [1] = assay: Antibacterial activity against Escherichia coli ATCC 8739 at 300 ug/ml after 24 hrs by agar well diffusion method; details: ATCC 8739, 24 h, read-out: DIZ
# Aspergillus flavus [2] = assay: Antifungal activity against Aspergillus flavus after 72 hrs by agar well diffusion method
# Klebsiella pneumoniae [3] = assay: Antibacterial activity against Klebsiella pneumoniae at 50 ug/ml after 24 hrs by agar well diffusion method; details: read-out: DIZ
# Rhizoctonia solani [4] = assay: Antifungal activity against Rhizoctonia solani at 200 ug/ml after 72 hrs by agar well diffusion method; details: read-out: DIZ
# Klebsiella pneumoniae [5] = assay: Antibacterial activity against Klebsiella pneumoniae at 300 ug/ml after 24 hrs by agar well diffusion method; details: read-out: DIZ
# Escherichia coli [6] = assay: Antibacterial activity against Escherichia coli ATCC 8739 at 200 ug/ml after 24 hrs by agar well diffusion method; details: ATCC 8739, 24 h, read-out: DIZ
# Staphylococcus aureus [7] = assay: Antibacterial activity against Staphylococcus aureus ATCC 6538 at 300 ug/ml after 24 hrs by agar well diffusion method; details: ATCC 6538, 24 h, read-out: DIZ
# Fusarium oxysporum [8] = assay: Antifungal activity against Fusarium oxysporum at 50 ug/ml after 72 hrs by agar well diffusion method; details: read-out: DIZ
# Staphylococcus aureus [9] = assay: Antibacterial activity against Staphylococcus aureus ATCC 6538 at 500 ug/ml after 24 hrs by agar well diffusion method; details: ATCC 6538, 24 h, read-out: DIZ
# Klebsiella pneumoniae [10] = assay: Antibacterial activity against Klebsiella pneumoniae at 500 ug/ml after 24 hrs by agar well diffusion method; details: read-out: DIZ
# Escherichia coli [11] = assay: Antibacterial activity against Escherichia coli ATCC 8739 after 24 hrs by agar well diffusion method; details: ATCC 8739, 24 h
# Bacillus subtilis [12] = assay: Antibacterial activity against Bacillus subtilis at 500 ug/ml after 24 hrs by agar well diffusion method; details: read-out: DIZ
# Aspergillus niger [13] = assay: Antifungal activity against Aspergillus niger at 300 ug/ml after 72 hrs by agar well diffusion method; details: read-out: DIZ
# Staphylococcus aureus [14] = assay: Antibacterial activity against Staphylococcus aureus ATCC 6538 after 24 hrs by agar well diffusion method; details: ATCC 6538, 24 h
# Aspergillus niger [15] = assay: Antifungal activity against Aspergillus niger at 500 ug/ml after 72 hrs by agar well diffusion method; details: read-out: DIZ
# Rhizoctonia solani [16] = assay: Antifungal activity against Rhizoctonia solani at 50 ug/ml after 72 hrs by agar well diffusion method; details: read-out: DIZ
# Bacillus subtilis [17] = assay: Antibacterial activity against Bacillus subtilis at 200 ug/ml after 24 hrs by agar well diffusion method; details: read-out: DIZ
# Fusarium oxysporum [18] = assay: Antifungal activity against Fusarium oxysporum at 200 ug/ml after 72 hrs by agar well diffusion method; details: read-out: DIZ
# Bacillus subtilis [19] = assay: Antibacterial activity against Bacillus subtilis after 24 hrs by agar well diffusion method
# Rhizoctonia solani [20] = assay: Antifungal activity against Rhizoctonia solani at 300 ug/ml after 72 hrs by agar well diffusion method; details: read-out: DIZ
# Klebsiella pneumoniae [21] = assay: Antibacterial activity against Klebsiella pneumoniae after 24 hrs by agar well diffusion method
# Aspergillus niger [22] = assay: Antifungal activity against Aspergillus niger at 200 ug/ml after 72 hrs by agar well diffusion method; details: read-out: DIZ
# Bacillus subtilis [23] = assay: Antibacterial activity against Bacillus subtilis at 50 ug/ml after 24 hrs by agar well diffusion method; details: read-out: DIZ
# Escherichia coli [24] = assay: Antibacterial activity against Escherichia coli ATCC 8739 at 500 ug/ml after 24 hrs by agar well diffusion method; details: ATCC 8739, 24 h, read-out: DIZ
# Aspergillus flavus [25] = assay: Antifungal activity against Aspergillus flavus at 200 ug/ml after 72 hrs by agar well diffusion method; details: read-out: DIZ
# Aspergillus niger [26] = assay: Antifungal activity against Aspergillus niger at 100 ug/ml after 72 hrs by agar well diffusion method; details: read-out: DIZ
# Fusarium oxysporum [27] = assay: Antifungal activity against Fusarium oxysporum at 100 ug/ml after 72 hrs by agar well diffusion method; details: read-out: DIZ
# Aspergillus niger [28] = assay: Antifungal activity against Aspergillus niger at 50 ug/ml after 72 hrs by agar well diffusion method; details: read-out: DIZ
# Aspergillus niger [29] = assay: Antifungal activity against Aspergillus niger after 72 hrs by agar well diffusion method
# Staphylococcus aureus [30] = assay: Antibacterial activity against Staphylococcus aureus ATCC 6538 at 200 ug/ml after 24 hrs by agar well diffusion method; details: ATCC 6538, 24 h, read-out: DIZ
# Escherichia coli [31] = assay: Antibacterial activity against Escherichia coli ATCC 8739 at 100 ug/ml after 24 hrs by agar well diffusion method; details: ATCC 8739, 24 h, read-out: DIZ
# Bacillus subtilis [32] = assay: Antibacterial activity against Bacillus subtilis at 300 ug/ml after 24 hrs by agar well diffusion method; details: read-out: DIZ
# Aspergillus flavus [33] = assay: Antifungal activity against Aspergillus flavus at 100 ug/ml after 72 hrs by agar well diffusion method; details: read-out: DIZ
# Fusarium oxysporum [34] = assay: Antifungal activity against Fusarium oxysporum after 72 hrs by agar well diffusion method
# Bacillus subtilis [35] = assay: Antibacterial activity against Bacillus subtilis at 100 ug/ml after 24 hrs by agar well diffusion method; details: read-out: DIZ
# Rhizoctonia solani [36] = assay: Antifungal activity against Rhizoctonia solani at 500 ug/ml after 72 hrs by agar well diffusion method; details: read-out: DIZ
# Fusarium oxysporum [37] = assay: Antifungal activity against Fusarium oxysporum at 300 ug/ml after 72 hrs by agar well diffusion method; details: read-out: DIZ
# Klebsiella pneumoniae [38] = assay: Antibacterial activity against Klebsiella pneumoniae at 200 ug/ml after 24 hrs by agar well diffusion method; details: read-out: DIZ
# Aspergillus flavus [39] = assay: Antifungal activity against Aspergillus flavus at 300 ug/ml after 72 hrs by agar well diffusion method; details: read-out: DIZ
# Rhizoctonia solani [40] = assay: Antifungal activity against Rhizoctonia solani at 100 ug/ml after 72 hrs by agar well diffusion method; details: read-out: DIZ
# Aspergillus flavus [41] = assay: Antifungal activity against Aspergillus flavus at 500 ug/ml after 72 hrs by agar well diffusion method; details: read-out: DIZ
# Fusarium oxysporum [42] = assay: Antifungal activity against Fusarium oxysporum at 500 ug/ml after 72 hrs by agar well diffusion method; details: read-out: DIZ
# Staphylococcus aureus [43] = assay: Antibacterial activity against Staphylococcus aureus ATCC 6538 at 100 ug/ml after 24 hrs by agar well diffusion method; details: ATCC 6538, 24 h, read-out: DIZ
# Rhizoctonia solani [44] = assay: Antifungal activity against Rhizoctonia solani after 72 hrs by agar well diffusion method
# Escherichia coli [45] = assay: Antibacterial activity against Escherichia coli ATCC 8739 at 50 ug/ml after 24 hrs by agar well diffusion method; details: ATCC 8739, 24 h, read-out: DIZ
# Staphylococcus aureus [46] = assay: Antibacterial activity against Staphylococcus aureus ATCC 6538 at 50 ug/ml after 24 hrs by agar well diffusion method; details: ATCC 6538, 24 h, read-out: DIZ
# Aspergillus flavus [47] = assay: Antifungal activity against Aspergillus flavus at 50 ug/ml after 72 hrs by agar well diffusion method; details: read-out: DIZ
# Klebsiella pneumoniae [48] = assay: Antibacterial activity against Klebsiella pneumoniae at 100 ug/ml after 24 hrs by agar well diffusion method; details: read-out: DIZ
smiles,measurement,setting,value
Cn1cc(C=C2C(=O)OC(C)(C)OC2=O)c2cc(Br)ccc21,zone of inhibition at 300 µg/mL,Escherichia coli [1],21 mm
same,MIC,Aspergillus flavus [2],40 µg/mL
same,zone of inhibition at 50 µg/mL,Klebsiella pneumoniae [3],9 mm
same,zone of inhibition at 200 µg/mL,Rhizoctonia solani [4],16 mm
same,zone of inhibition at 300 µg/mL,Klebsiella pneumoniae [5],23 mm
same,zone of inhibition at 200 µg/mL,Escherichia coli [6],14 mm
same,zone of inhibition at 300 µg/mL,Staphylococcus aureus [7],17 mm
same,zone of inhibition at 50 µg/mL,Fusarium oxysporum [8],7 mm
same,zone of inhibition at 500 µg/mL,Staphylococcus aureus [9],25 mm
same,zone of inhibition at 500 µg/mL,Klebsiella pneumoniae [10],32 mm
same,MIC,Escherichia coli [11],15 µg/mL
same,zone of inhibition at 500 µg/mL,Bacillus subtilis [12],23 mm
same,zone of inhibition at 300 µg/mL,Aspergillus niger [13],18 mm
same,MIC,Staphylococcus aureus [14],25 µg/mL
same,zone of inhibition at 500 µg/mL,Aspergillus niger [15],25 mm
same,zone of inhibition at 50 µg/mL,Rhizoctonia solani [16],7 mm
same,zone of inhibition at 200 µg/mL,Bacillus subtilis [17],11 mm
same,zone of inhibition at 200 µg/mL,Fusarium oxysporum [18],16 mm
same,MIC,Bacillus subtilis [19],30 µg/mL
same,zone of inhibition at 300 µg/mL,Rhizoctonia solani [20],21 mm
same,MIC,Klebsiella pneumoniae [21],15 µg/mL
same,zone of inhibition at 200 µg/mL,Aspergillus niger [22],14 mm
same,zone of inhibition at 50 µg/mL,Bacillus subtilis [23],5 mm
same,zone of inhibition at 500 µg/mL,Escherichia coli [24],30 mm
same,zone of inhibition at 200 µg/mL,Aspergillus flavus [25],12 mm
same,zone of inhibition at 100 µg/mL,Aspergillus niger [26],10 mm
same,zone of inhibition at 100 µg/mL,Fusarium oxysporum [27],12 mm
same,zone of inhibition at 50 µg/mL,Aspergillus niger [28],6 mm
same,MIC,Aspergillus niger [29],40 µg/mL
same,zone of inhibition at 200 µg/mL,Staphylococcus aureus [30],13 mm
same,zone of inhibition at 100 µg/mL,Escherichia coli [31],13.5 mm
same,zone of inhibition at 300 µg/mL,Bacillus subtilis [32],15 mm
same,zone of inhibition at 100 µg/mL,Aspergillus flavus [33],9 mm
same,MIC,Fusarium oxysporum [34],35 µg/mL
same,zone of inhibition at 100 µg/mL,Bacillus subtilis [35],9.5 mm
same,zone of inhibition at 500 µg/mL,Rhizoctonia solani [36],29 mm
same,zone of inhibition at 300 µg/mL,Fusarium oxysporum [37],21 mm
same,zone of inhibition at 200 µg/mL,Klebsiella pneumoniae [38],18 mm
same,zone of inhibition at 300 µg/mL,Aspergillus flavus [39],15 mm
same,zone of inhibition at 100 µg/mL,Rhizoctonia solani [40],12 mm
same,zone of inhibition at 500 µg/mL,Aspergillus flavus [41],23 mm
same,zone of inhibition at 500 µg/mL,Fusarium oxysporum [42],29 mm
same,zone of inhibition at 100 µg/mL,Staphylococcus aureus [43],10 mm
same,MIC,Rhizoctonia solani [44],35 µg/mL
same,zone of inhibition at 50 µg/mL,Escherichia coli [45],8.4 mm
same,zone of inhibition at 50 µg/mL,Staphylococcus aureus [46],6 mm
same,zone of inhibition at 50 µg/mL,Aspergillus flavus [47],4 mm
same,zone of inhibition at 100 µg/mL,Klebsiella pneumoniae [48],14 mm
CCn1cc(C=C2C(=O)OC(C)(C)OC2=O)c2cc(Br)ccc21,zone of inhibition at 300 µg/mL,Escherichia coli [1],17 mm
same,MIC,Aspergillus flavus [2],40 µg/mL
same,zone of inhibition at 50 µg/mL,Klebsiella pneumoniae [3],8.4 mm
same,zone of inhibition at 200 µg/mL,Rhizoctonia solani [4],16 mm
same,zone of inhibition at 300 µg/mL,Klebsiella pneumoniae [5],21 mm
same,zone of inhibition at 200 µg/mL,Escherichia coli [6],13 mm
same,zone of inhibition at 300 µg/mL,Staphylococcus aureus [7],15 mm
same,zone of inhibition at 50 µg/mL,Fusarium oxysporum [8],7 mm
same,zone of inhibition at 500 µg/mL,Staphylococcus aureus [9],23 mm
same,zone of inhibition at 500 µg/mL,Klebsiella pneumoniae [10],30 mm
same,MIC,Escherichia coli [11],15 µg/mL
same,zone of inhibition at 500 µg/mL,Bacillus subtilis [12],23 mm
same,zone of inhibition at 300 µg/mL,Aspergillus niger [13],18 mm
same,MIC,Staphylococcus aureus [14],25 µg/mL
same,zone of inhibition at 500 µg/mL,Aspergillus niger [15],25 mm
same,zone of inhibition at 50 µg/mL,Rhizoctonia solani [16],7 mm
same,zone of inhibition at 200 µg/mL,Bacillus subtilis [17],11 mm
same,zone of inhibition at 200 µg/mL,Fusarium oxysporum [18],16 mm
same,MIC,Bacillus subtilis [19],30 µg/mL
same,zone of inhibition at 300 µg/mL,Rhizoctonia solani [20],21 mm
same,MIC,Klebsiella pneumoniae [21],15 µg/mL
same,zone of inhibition at 200 µg/mL,Aspergillus niger [22],14 mm
same,zone of inhibition at 50 µg/mL,Bacillus subtilis [23],5 mm
same,zone of inhibition at 500 µg/mL,Escherichia coli [24],25 mm
same,zone of inhibition at 200 µg/mL,Aspergillus flavus [25],12 mm
same,zone of inhibition at 100 µg/mL,Aspergillus niger [26],10 mm
same,zone of inhibition at 100 µg/mL,Fusarium oxysporum [27],12 mm
same,zone of inhibition at 50 µg/mL,Aspergillus niger [28],6 mm
same,MIC,Aspergillus niger [29],40 µg/mL
same,zone of inhibition at 200 µg/mL,Staphylococcus aureus [30],11 mm
same,zone of inhibition at 100 µg/mL,Escherichia coli [31],10 mm
same,zone of inhibition at 300 µg/mL,Bacillus subtilis [32],15 mm
same,zone of inhibition at 100 µg/mL,Aspergillus flavus [33],9 mm
same,MIC,Fusarium oxysporum [34],35 µg/mL
same,zone of inhibition at 100 µg/mL,Bacillus subtilis [35],9.5 mm
same,zone of inhibition at 500 µg/mL,Rhizoctonia solani [36],29 mm
same,zone of inhibition at 300 µg/mL,Fusarium oxysporum [37],21 mm
same,zone of inhibition at 200 µg/mL,Klebsiella pneumoniae [38],14 mm
same,zone of inhibition at 300 µg/mL,Aspergillus flavus [39],15 mm
same,zone of inhibition at 100 µg/mL,Rhizoctonia solani [40],12 mm
same,zone of inhibition at 500 µg/mL,Aspergillus flavus [41],23 mm
same,zone of inhibition at 500 µg/mL,Fusarium oxysporum [42],29 mm
same,zone of inhibition at 100 µg/mL,Staphylococcus aureus [43],9.5 mm
same,MIC,Rhizoctonia solani [44],35 µg/mL
same,zone of inhibition at 50 µg/mL,Escherichia coli [45],6 mm
same,zone of inhibition at 50 µg/mL,Staphylococcus aureus [46],5 mm
same,zone of inhibition at 50 µg/mL,Aspergillus flavus [47],4 mm
same,zone of inhibition at 100 µg/mL,Klebsiella pneumoniae [48],13.4 mm
